Patent US20260256771A1, “GALUNISERTIB FOR USE IN THE TREATMENT OF ANDROGENIC ALOPECIA” (SAÚDE VIÁVEL, S.A., priority 2022, published 2026)

How the values were obtained:
TGFβ2 = assay: qRT-PCR of TGFβ transcripts in dermal papilla isolated from HFOCs; type: cell-based, human; details: DP isolated from human HFs cultured ex vivo for 48 h; DHT-treated (1 μM) vs. untreated HFOCs
Description: Concentration and purity are ascertained in a NanoDrop spectrophotometer.
(§1) In addition, only anagen hair follicles are used.
(§2) Hair growth percentages is normalized to day 0.

TGFβ1 = details: DP isolated from human HFs cultured ex vivo for 48 h; DHT-treated (1 μM) vs. untreated HFOCs
Description: (§3) For RNA isolation and Quantitative Real-Time PCR (qPCR), Qiagen RNeasy kit (Qiagen, Germany) is used to isolate RNA. Concentration and purity are ascertained in a NanoDrop spectrophotometer. 600 ng of RNA are reverse transcribed into complementary DNA with iScript™ cDNA Synthesis Kit. Quantitative real-time polymerase chain reactions (qPCRs) are performed in a CFX384 Touch™ Real-Time PCR Detection System (Bio-Rad Laboratories). 10 μl reaction mixes are prepared consisting of iTaq™ Universal SYBR® Green Supermix (Bio-Rad Laboratories), forward and reverse primers (at 125 nM each) and cDNA (30 ng). The amplification program used is: 95° C. for 3 min, followed by 39 cycles of 95° C. for 10 s, 60° C. for 35 s, and melt curve from 55° C. to 95° C. with 0.5° C. increment for 10 s. All primers are designed to span at least one […]. Transcript levels are quantified by the 2-ΔΔCt method. ΔCt values are determined by subtracting the geometrical mean of the Ct values for GAPDH and UBQ from the mean target gene Ct value.
(§4) Hair grafts are obtained from male patients aged between 18-55 years with informed consent. A total of 10-20 micrografts are harvested from the occipital scalp of patients diagnosed with androgenic alopecia and undergoing autologous hair transplantation by the routine FUE technique.

TGFβ3 = details: DP isolated from human HFs cultured ex vivo for 48 h; DHT-treated (1 μM) vs. untreated HFOCs
Description: as §3, §4

[1] = test system: phosphorylated SMAD2 (p-SMAD2); assay: Western blot of phospho-SMAD2 in hair bulbs of HFOCs; type: cell-based, human; details: untreated vs DHT-treated HFOCs, 72 h
Description: For western blot, hair bulbs are dissected from HFOCs treated with DMSO, DHT and Galunisertib for 72 h. Upon rinse in PBS, hair bulbs are lysed in Laemmli buffer (without bromophenol blue) with Halt Protease Inhibitor Cocktail and Halt Phosphatase Inhibitor Cocktail, and lysates are sonicated. Lysates from 10 hair bulbs are used for each condition tested. Total extracts are then loaded in SDS-polyacrylamide gels and transferred onto nitrocellulose membranes for western blot analysis. Membranes are blocked during 1 h with TBS+5% BSA. Primary and secondary antibodies are diluted in TBS+2% BSA accordingly to Supplementary Table 1. Signal is detected using Clarity Western ECL Substrate reagent. A GS-800 calibrated densitometer with Quantity One 1-D Analysis Software 4.6 (Bio-Rad Laboratories) is used for quantitative analysis of protein levels.
as §1, §2

For `C[C@]12CCC(=O)C[C@@H]1CC[C@@H]1[C@@H]2CC[C@]2(C)[C@@H](O)CC[C@@H]12` [DHT, dihydrotestosterone], the “TGFβ2 transcript levels in DP” value (TGFβ2) was “slightly increased”, the “TGFβ1 transcript levels in DP” value (TGFβ1) was “remaining unchanged” and the “TGFβ3 transcript levels in DP” value (TGFβ3) was “remaining unchanged”. The “p-SMAD2 protein levels in hair bulbs” value [1] was “equivalent”.
